The target in assay [1] is T1, 5-HT3 receptors (Rattus norvegicus, UniProt P35563).
T1 construct: tested for 5-HT3 receptor antagonism in the isolated vagus nerve of the rat; from tissue; host or cells: isolated cervical vagus nerve of the rat
T1 sequence (P35563 24-483): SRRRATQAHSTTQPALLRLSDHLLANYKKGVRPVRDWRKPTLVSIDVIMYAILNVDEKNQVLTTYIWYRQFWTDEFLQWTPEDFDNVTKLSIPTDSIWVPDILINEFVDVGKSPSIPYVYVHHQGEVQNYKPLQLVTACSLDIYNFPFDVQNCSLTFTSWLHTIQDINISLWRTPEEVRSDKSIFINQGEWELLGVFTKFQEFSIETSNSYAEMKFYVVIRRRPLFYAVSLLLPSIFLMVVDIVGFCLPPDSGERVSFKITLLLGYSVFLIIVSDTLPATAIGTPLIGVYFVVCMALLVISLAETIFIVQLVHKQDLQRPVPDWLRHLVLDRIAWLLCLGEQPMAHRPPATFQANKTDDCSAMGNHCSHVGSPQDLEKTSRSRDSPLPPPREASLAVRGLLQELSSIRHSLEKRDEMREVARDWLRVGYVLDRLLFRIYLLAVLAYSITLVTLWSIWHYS
Put plainly: 5-HT3 receptor antagonism in the isolated vagus nerve of the rat (5-HT induced depolarisation). Type of assay: cell-based. The note with it: isolated rat cervical vagus nerve; estimated from 5-HT concentration ratios; read-out: apparent pKB (KB is the antagonist dissociation constant) (converted). How it is done:
The pyridyl ethers are tested for 5-HT3 receptor antagonism in the isolated vagus nerve of the rat by a method based upon that of Ireland S. J. and Tyers M. B. Brit. J. Phamacol., 1987, 90, 229-238. The procedure relies upon the ability of 5-HT to induce depolaraisation of neurones in the cervical vagus nerve by a direct action of 5-HT3 receptors. A concentration response curve to 5-HT induced depolaraisation is obtained and the antagonists are added to the bath containing the isolated nerve before repeating the 5-HT concentration-response curve. Antagonist potency is estimated from the 5-HT concentration ratios and expressed as an apparent pKB value (where KB is the antagonist dissociation constant).

Assay [2] addresses T2, 5-HT3 receptors (Oryctolagus cuniculus, UniProt A0A5F9C9J3).
T2 construct: 5-HT3 antagonistic activity in the isolated right atrium of the rabbit heart; from tissue; host or cells: isolated right atrium of the rabbit heart (sympathetic nerve terminals)
T2 sequence (A0A5F9C9J3 1-494): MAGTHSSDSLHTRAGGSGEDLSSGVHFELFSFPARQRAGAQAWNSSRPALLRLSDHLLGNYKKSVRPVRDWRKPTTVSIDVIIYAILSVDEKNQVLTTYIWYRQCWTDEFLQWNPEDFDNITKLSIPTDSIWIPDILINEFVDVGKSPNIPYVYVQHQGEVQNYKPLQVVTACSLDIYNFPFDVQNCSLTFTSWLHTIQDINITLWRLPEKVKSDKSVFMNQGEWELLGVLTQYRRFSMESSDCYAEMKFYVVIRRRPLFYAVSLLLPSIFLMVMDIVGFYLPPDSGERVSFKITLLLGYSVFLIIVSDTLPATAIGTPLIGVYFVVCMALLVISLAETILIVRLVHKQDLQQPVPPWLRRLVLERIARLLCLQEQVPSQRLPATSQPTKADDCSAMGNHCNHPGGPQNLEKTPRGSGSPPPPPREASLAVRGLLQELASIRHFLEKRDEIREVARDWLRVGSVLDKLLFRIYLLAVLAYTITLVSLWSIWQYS
Kind of assay: 5-HT3 antagonistic activity in the isolated right atrium of the rabbit heart. The conditions noted are these: 5-HT evoked increase in spontaneous rate, read-out: apparent PKB (converted). The class given is cell-based. How it is done:
The compounds of the invention are also tested for 5-HT3 antagonistic activity in the isolated right atrium of the rabbit heart based upon the method of Fozard J. R., Naunyn-Schmiedeberg's Arch. Pharmacol., 1984, 326, 36-44. The procedures relies upon the ability of 5-HT to stimulate 5-HT3 receptors present on sympathetic nerve terminals in the heart, causing release of noradrenaline which evokes an increase in the spontaneous rate of […]. The antagonist potency is expressed in a similar manner to that of the preceding test method i.e. as an apparent PKB.

Structures are written as SMILES.

Regarding `CN1[C@@H]2CC[C@H]1C[C@@H](Oc1ccccn1)C2` [Example 1, Endo 8 methyl-3-(2-pyridinyloxy)-8-azabicyclo[3.2.1]octane], the antagonist equilibrium constant (Kb) in assay [1] is 631 nM. Also, the Kd in assay [2] was 39.8 nM.
